ChEMBL document CHEMBL1146125, “Ultra-potent P1 modified arylsulfonamide HIV protease inhibitors: the discovery of GW0385” (Bioorg Med Chem Lett, 2006)

Key:
MT4 [1] = assay: Antiviral activity against HIV1 HXB2 in MT4 cells; format: functional, cell-based; conditions: Homo sapiens
MT4 [2] = assay: Antiviral activity against HIV D545701 in MT4 cells; format: functional, cell-based; conditions: Homo sapiens
MT4 [3] = assay: Antiviral activity against HIV1 EP13 in MT4 cells; format: functional, cell-based; conditions: Homo sapiens
[4] = Oral bioavailability in rat at 1 mg/kg; format: ADME, organism-based; conditions: in vivo
[5] = Oral bioavailability in dog at 1 mg/kg; format: ADME, organism-based, Canis lupus familiaris; conditions: in vivo
[6] = Half life in dog at 1 mg/kg; format: ADME, organism-based, Canis lupus familiaris; parameters: dose 1 mg/kg; conditions: in vivo
[7] = Half life in rat at 1 mg/kg; format: ADME, organism-based; parameters: dose 1 mg/kg; conditions: in vivo
[8] = Clearance in dog at 1 mg/kg, iv; format: ADME, organism-based, Canis lupus familiaris; parameters: dose 1 mg/kg, route intravenous; conditions: in vivo
[9] = Clearance in rat at 1 mg/kg, iv; format: ADME, organism-based; parameters: dose 1 mg/kg, route intravenous; conditions: in vivo
MT4 [10] = assay: Antiviral activity against multi PI resistant HIV1 31246 in MT4 cells; format: functional, cell-based; conditions: Homo sapiens
MT4 [11] = assay: Antiviral activity against HIV1 I50V in MT4 cells; format: functional, cell-based; conditions: Homo sapiens
[12] = Half life in dog at 1 mg/kg co-administered with 4 mg/kg ritonavir; format: ADME, organism-based, Canis lupus familiaris; conditions: in vivo
[13] = Bioavailability in dog at 1 mg/kg co-administered with 4 mg/kg ritonavir; format: ADME, organism-based, Canis lupus familiaris; conditions: in vivo
MT4 [14] = assay: Antiviral activity against indinavir resistant HIV1 30813 in MT4 cells; format: functional, cell-based; conditions: Homo sapiens
MT4 [15] = assay: Antiviral activity against nelfinavir resistant HIV1 14330 in MT4 cells; format: functional, cell-based; conditions: Homo sapiens
MT4 [16] = assay: Antiviral activity against multi PI resistant HIV1 EP14 in MT4 cells; format: functional, cell-based; conditions: Homo sapiens
MT4 [17] = assay: Antiviral activity against amprenavir resistant HIV1 468 in MT4 cells; format: functional, cell-based; conditions: Homo sapiens
MT4 [18] = assay: Antiviral activity against HIV1 I54V in MT4 cells; format: functional, cell-based; conditions: Homo sapiens
[19] = Bioavailability in rat at 1 mg/kg co-administered with 4 mg/kg ritonavir; format: ADME, organism-based; conditions: in vivo
MT4 [20] = assay: Antiviral activity against triple multi PI resistant HIV1 in MT4 cells; format: functional, cell-based; conditions: Homo sapiens
[21] = Half life in rat at 1 mg/kg co-administered with 4 mg/kg ritonavir; format: ADME, organism-based; conditions: in vivo

SMILES	IC50 (MT4 [1])	IC50 (MT4 [2])	IC50 (MT4 [3])	further results
CC(C)CN(C[C@@H](O)[C@H](Cc1ccc(OCCn2cncn2)cc1)NC(=O)O[C@H]1CO[C@H]2OCC[C@H]21)S(=O)(=O)c1ccc2c(c1)OCO2	21 nM	12 nM	8.3 nM	
CC(C)CN(C[C@@H](O)[C@H](Cc1ccc(OCc2cccc(C#N)c2)cc1)NC(=O)O[C@H]1CO[C@H]2OCC[C@H]21)S(=O)(=O)c1ccc2c(c1)OCO2	1.2 nM	2.2 nM	2.2 nM	
Cc1cccc(C)c1OCC(=O)N[C@@H](Cc1ccccc1)[C@@H](O)C[C@H](Cc1ccccc1)NC(=O)[C@H](C(C)C)N1CCCNC1=O [LOPINAVIR]	40 nM	> 1000 nM	400 nM	
CC(C)CN(C[C@@H](O)[C@H](Cc1ccc(Oc2ccc(CN3CCCC3)cc2)cc1)NC(=O)O[C@H]1CO[C@H]2OCC[C@H]21)S(=O)(=O)c1ccc2c(c1)OCO2	2.8 nM	19 nM	4.6 nM	
CC(=O)NCc1ccc(Oc2ccc(C[C@H](NC(=O)O[C@H]3CO[C@H]4OCC[C@H]43)[C@H](O)CN(CC(C)C)S(=O)(=O)c3ccc4c(c3)OCO4)cc2)cc1	6.2 nM	6.3 nM	3.4 nM	
CC(C)CN(C[C@@H](O)[C@H](Cc1ccc(OCCc2cccs2)cc1)NC(=O)O[C@H]1CO[C@H]2OCC[C@H]21)S(=O)(=O)c1ccc2c(c1)OCO2	2.3 nM	11 nM	3.4 nM	bioavailability [4]: 15%; bioavailability [5]: 18%; half-life [6]: 0.5 h; half-life [7]: 2.2 h; clearance [8]: 22 mL/min/kg; clearance [9]: 27 mL/min/kg
CC(C)CN(C[C@@H](O)[C@H](Cc1ccc(OCc2ccc3ccccc3n2)cc1)NC(=O)O[C@H]1CO[C@H]2OCC[C@H]21)S(=O)(=O)c1ccc2c(c1)OCO2	2.5 nM	19 nM	5.2 nM	
CC(C)CN(C[C@@H](O)[C@H](Cc1ccc(OCc2cscn2)cc1)NC(=O)O[C@H]1CO[C@H]2OCC[C@H]21)S(=O)(=O)c1ccc2c(c1)OCO2	0.6 nM	3.5 nM	1.2 nM	
CC(C)CN(C[C@@H](O)[C@H](Cc1ccc(Oc2cccc(F)c2)cc1)NC(=O)O[C@H]1CO[C@H]2OCC[C@H]21)S(=O)(=O)c1ccc2c(c1)OCO2	5.7 nM	48 nM	17 nM	
CC(C)CN(C[C@@H](O)[C@H](Cc1ccc(Oc2cccnc2)cc1)NC(=O)O[C@H]1CO[C@H]2OCC[C@H]21)S(=O)(=O)c1ccc2c(c1)OCO2	1.1 nM	9.5 nM	2.4 nM	
CC(C)CN(C[C@@H](O)[C@H](Cc1ccccc1)NC(=O)O[C@H]1CCOC1)S(=O)(=O)c1ccc(N)cc1		> 1000 nM		
CC(C)CN(C[C@@H](O)[C@H](Cc1ccc(Oc2ccccc2)cc1)NC(=O)O[C@H]1CO[C@H]2OCC[C@H]21)S(=O)(=O)c1ccc2c(c1)OCO2	7.5 nM	62 nM	21 nM	
CC(C)(C)NC(=O)[C@@H]1C[C@@H]2CCCC[C@@H]2CN1C[C@@H](O)[C@H](Cc1ccccc1)NC(=O)[C@H](CC(N)=O)NC(=O)c1ccc2ccccc2n1	60 nM	603 nM	80 nM	
CC(C)CN(C[C@@H](O)[C@H](Cc1ccc(Oc2ccc(CO)cc2)cc1)NC(=O)O[C@H]1CO[C@H]2OCC[C@H]21)S(=O)(=O)c1ccc2c(c1)OCO2	1.6 nM	8.4 nM	1.6 nM	
COC(=O)N[C@H](C(=O)N[C@@H](Cc1ccccc1)[C@@H](O)CN(Cc1ccc(-c2ccccn2)cc1)NC(=O)[C@@H](NC(=O)OC)C(C)(C)C)C(C)(C)C [ATAZANAVIR]	25 nM	70 nM	93 nM	
CC(C)CN(C[C@@H](O)[C@H](Cc1ccc(OCCc2ccsc2)cc1)NC(=O)O[C@H]1CO[C@H]2OCC[C@H]21)S(=O)(=O)c1ccc2c(c1)OCO2	9.5 nM	44 nM	17 nM	
CC(C)CN(C[C@@H](O)[C@H](Cc1ccccc1)NC(=O)O[C@H]1CO[C@H]2OCC[C@H]21)S(=O)(=O)c1ccc(N)cc1	3.9 nM	32 nM	6.8 nM	

SMILES	IC50 (MT4 [1])	IC50 (MT4 [2])	IC50 (MT4 [3])	further results
COC(=O)NCc1ccc(Oc2ccc(C[C@H](NC(=O)O[C@H]3CO[C@H]4OCC[C@H]43)[C@H](O)CN(CC(C)C)S(=O)(=O)c3ccc4c(c3)OCO4)cc2)cc1	1.3 nM	6.8 nM	2.2 nM	
CC(C)CN(C[C@@H](O)[C@H](Cc1ccc(Oc2ccc(CN3CCOCC3)cc2)cc1)NC(=O)O[C@H]1CO[C@H]2OCC[C@H]21)S(=O)(=O)c1ccc2c(c1)OCO2	1.2 nM	13 nM	2.9 nM	
COc1ccc(Oc2ccc(C[C@H](NC(=O)O[C@H]3CO[C@H]4OCC[C@H]43)[C@H](O)CN(CC(C)C)S(=O)(=O)c3ccc4c(c3)OCO4)cc2)cc1	2.1 nM	27 nM	6.9 nM	
CC(C)CN(C[C@@H](O)[C@H](Cc1ccc(OCc2ccc3ccccc3c2)cc1)NC(=O)O[C@H]1CO[C@H]2OCC[C@H]21)S(=O)(=O)c1ccc2c(c1)OCO2	11 nM	59 nM	30 nM	
Cc1nc(COc2ccc(C[C@H](NC(=O)O[C@H]3CO[C@H]4OCC[C@H]43)[C@H](O)CN(CC(C)C)S(=O)(=O)c3ccc4c(c3)OCO4)cc2)cs1 [BRECANAVIR]			1.1 nM	IC50 (MT4 [10]): 1.7 nM; IC50 (MT4 [11]): 1.6 nM; bioavailability [4]: 10%; half-life [12]: 1.2 h; bioavailability [13]: 86%; IC50 (MT4 [14]): 0.46 nM; IC50 (MT4 [15]): 0.45 nM; IC50 (MT4 [16]): 0.77 nM; bioavailability [5]: 20%; IC50 (MT4 [17]): 8.2 nM; IC50 (MT4 [18]): 0.22 nM; bioavailability [19]: 62%; half-life [6]: 0.87 h; IC50 (MT4 [20]): 5.4 nM; half-life [7]: 1.4 h; half-life [21]: 1.1 h; clearance [8]: 19 mL/min/kg; clearance [9]: 10 mL/min/kg
CC(C)CN(C[C@@H](O)[C@H](Cc1ccc(OCc2ccccn2)cc1)NC(=O)O[C@H]1CO[C@H]2OCC[C@H]21)S(=O)(=O)c1ccc2c(c1)OCO2	1.2 nM	4.5 nM	1.2 nM	bioavailability [4]: 21%; half-life [7]: 0.91 h; clearance [9]: 20 mL/min/kg
COc1cccc(Oc2ccc(C[C@H](NC(=O)O[C@H]3CO[C@H]4OCC[C@H]43)[C@H](O)CN(CC(C)C)S(=O)(=O)c3ccc4c(c3)OCO4)cc2)c1	4.7 nM	41 nM	16 nM	
CC(C)CN(C[C@@H](O)[C@H](Cc1ccc(Oc2ccncn2)cc1)NC(=O)O[C@H]1CO[C@H]2OCC[C@H]21)S(=O)(=O)c1ccc2c(c1)OCO2	2 nM	11 nM	2.8 nM	
CC(C)CN(C[C@@H](O)[C@H](Cc1ccc(Oc2ccc(F)cc2)cc1)NC(=O)O[C@H]1CO[C@H]2OCC[C@H]21)S(=O)(=O)c1ccc2c(c1)OCO2	3.3 nM	29 nM	8.1 nM	
CC(C)CN(C[C@@H](O)[C@H](Cc1ccc(OCc2ncc[nH]2)cc1)NC(=O)O[C@H]1CO[C@H]2OCC[C@H]21)S(=O)(=O)c1ccc2c(c1)OCO2	69 nM	16 nM	20 nM	
CC(C)CN(C[C@@H](O)[C@H](Cc1ccc(OCc2nccs2)cc1)NC(=O)O[C@H]1CO[C@H]2OCC[C@H]21)S(=O)(=O)c1ccc2c(c1)OCO2	0.9 nM	5.1 nM	1.5 nM	
CC(C)CN(C[C@@H](O)[C@H](Cc1ccc(OCCc2ccccc2)cc1)NC(=O)O[C@H]1CO[C@H]2OCC[C@H]21)S(=O)(=O)c1ccc2c(c1)OCO2	3.7 nM	25 nM	8.7 nM	
Cc1c(O)cccc1C(=O)N[C@@H](CSc1ccccc1)[C@H](O)CN1C[C@H]2CCCC[C@H]2C[C@H]1C(=O)NC(C)(C)C		> 1000 nM		
CC(C)CN(C[C@@H](O)[C@H](Cc1ccc(OCc2cncs2)cc1)NC(=O)O[C@H]1CO[C@H]2OCC[C@H]21)S(=O)(=O)c1ccc2c(c1)OCO2	1.9 nM	6.5 nM	2.5 nM	
CC(C)c1nc(CN(C)C(=O)N[C@H](C(=O)N[C@@H](Cc2ccccc2)C[C@H](O)[C@H](Cc2ccccc2)NC(=O)OCc2cncs2)C(C)C)cs1 [RITONAVIR]	268 nM	> 1000 nM	> 1000 nM	
CC(C)CN(C[C@@H](O)[C@H](Cc1ccc(OCc2ccccc2)cc1)NC(=O)O[C@H]1CO[C@H]2OCC[C@H]21)S(=O)(=O)c1ccc2c(c1)OCO2	3.1 nM	9.6 nM	5.9 nM	
CC(C)CN(C[C@@H](O)[C@H](Cc1ccc(Oc2ccc(CNS(C)(=O)=O)cc2)cc1)NC(=O)O[C@H]1CO[C@H]2OCC[C@H]21)S(=O)(=O)c1ccc2c(c1)OCO2	7.2 nM	11 nM	5.3 nM	
